Data as given in publication doi:10.1101/209783v1 (biorxiv, 2017).

Molecular target: Kir6.2/SUR2A KATP channel (mKir6.2 + rSUR2A) (Rattus norvegicus, UniProt Q61743+Q63563)
Test: inside-out excised patch clamp, Hill fit
Format: biochemical

Sequence of Kir6.2/SUR2A KATP channel (mKir6.2 + rSUR2A) (Q63563 whole entry): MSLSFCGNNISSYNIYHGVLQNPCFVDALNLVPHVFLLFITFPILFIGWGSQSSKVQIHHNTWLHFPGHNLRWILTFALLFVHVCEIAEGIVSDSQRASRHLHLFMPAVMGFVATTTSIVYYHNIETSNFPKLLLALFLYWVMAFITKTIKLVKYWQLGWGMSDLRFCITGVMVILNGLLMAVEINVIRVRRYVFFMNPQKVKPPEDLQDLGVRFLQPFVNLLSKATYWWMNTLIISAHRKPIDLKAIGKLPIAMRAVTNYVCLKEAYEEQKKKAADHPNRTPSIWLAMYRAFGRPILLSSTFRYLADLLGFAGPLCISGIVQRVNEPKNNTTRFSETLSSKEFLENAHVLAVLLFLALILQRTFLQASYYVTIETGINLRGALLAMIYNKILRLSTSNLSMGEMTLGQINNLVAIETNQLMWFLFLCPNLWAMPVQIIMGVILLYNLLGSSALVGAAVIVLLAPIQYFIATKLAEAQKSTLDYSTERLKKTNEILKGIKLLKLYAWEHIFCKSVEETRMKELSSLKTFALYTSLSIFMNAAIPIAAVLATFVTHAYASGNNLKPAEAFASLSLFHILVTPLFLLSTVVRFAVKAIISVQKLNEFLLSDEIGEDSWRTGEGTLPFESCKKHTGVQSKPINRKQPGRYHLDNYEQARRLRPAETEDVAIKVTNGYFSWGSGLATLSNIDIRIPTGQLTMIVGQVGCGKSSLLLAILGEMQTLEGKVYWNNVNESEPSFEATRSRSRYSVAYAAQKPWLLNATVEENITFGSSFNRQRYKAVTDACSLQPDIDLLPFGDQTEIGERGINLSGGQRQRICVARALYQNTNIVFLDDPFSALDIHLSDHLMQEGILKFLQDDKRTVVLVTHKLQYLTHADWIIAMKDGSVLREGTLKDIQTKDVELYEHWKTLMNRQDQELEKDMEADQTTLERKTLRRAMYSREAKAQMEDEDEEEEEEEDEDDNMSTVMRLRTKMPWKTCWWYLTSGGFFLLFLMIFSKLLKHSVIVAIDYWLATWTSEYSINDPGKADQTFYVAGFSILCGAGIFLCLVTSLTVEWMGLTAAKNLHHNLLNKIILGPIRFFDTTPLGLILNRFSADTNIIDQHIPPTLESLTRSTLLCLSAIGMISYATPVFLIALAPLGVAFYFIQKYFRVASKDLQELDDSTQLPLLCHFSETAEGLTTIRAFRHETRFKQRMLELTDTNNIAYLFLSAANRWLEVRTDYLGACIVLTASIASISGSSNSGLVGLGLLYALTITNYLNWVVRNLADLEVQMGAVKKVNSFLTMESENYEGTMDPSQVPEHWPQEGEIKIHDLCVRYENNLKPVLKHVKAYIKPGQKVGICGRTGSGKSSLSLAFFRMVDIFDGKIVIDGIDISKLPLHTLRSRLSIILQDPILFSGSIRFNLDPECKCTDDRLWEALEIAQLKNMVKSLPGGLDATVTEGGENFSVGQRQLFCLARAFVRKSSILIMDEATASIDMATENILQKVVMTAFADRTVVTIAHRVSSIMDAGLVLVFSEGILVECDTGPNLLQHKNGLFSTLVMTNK
Sequence of Kir6.2/SUR2A KATP channel (mKir6.2 + rSUR2A) (Q61743 whole entry): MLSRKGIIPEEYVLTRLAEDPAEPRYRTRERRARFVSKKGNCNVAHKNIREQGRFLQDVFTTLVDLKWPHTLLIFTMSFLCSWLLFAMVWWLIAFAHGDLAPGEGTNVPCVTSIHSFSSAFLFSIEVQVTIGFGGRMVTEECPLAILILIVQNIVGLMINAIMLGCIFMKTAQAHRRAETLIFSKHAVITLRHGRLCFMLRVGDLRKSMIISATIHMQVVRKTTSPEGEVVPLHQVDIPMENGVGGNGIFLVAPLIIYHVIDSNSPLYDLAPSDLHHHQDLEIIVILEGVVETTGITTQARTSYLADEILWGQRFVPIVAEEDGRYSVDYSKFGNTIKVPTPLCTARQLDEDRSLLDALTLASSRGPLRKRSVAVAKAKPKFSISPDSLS

IC50 [µM]	Compound
14.4 ± 2.3	Nc1ncnc2c1ncn2[C@@H]1O[C@H](COP(=O)(O)OP(=O)(O)OP(=O)(O)O)[C@@H](O)[C@H]1O [ATP]
0.0195 ± 0.0061	COc1ccc(Cl)cc1C(=O)NCCc1ccc(S(=O)(=O)NC(=O)NC2CCCCC2)cc1 [glibenclamide]
